Where two headings read alike, the source gives them in different places. Some results are limits rather than exact numbers.

Setting [1] is: absence of a second agent, Table 6B.

As for “5-((2- methylpropyl)sulfon- amido)piperidine- 3-carbonyl- polymyxin B nonapeptide [Example D73]”, in the assay with E. coli (sole activity, Table 6C), the “MIC, E. coli ATCC 25922” value is reported as 0.25 micrograms/mL and the “MIC, E. coli NCTC 13441” value worked out at 0.5 micrograms/mL. In the assay on K. pneumoniae (sole activity, Table 6C), the “MIC, K. pneumoniae ATCC 4352” value is reported as 0.5 micrograms/mL and the “MIC, K. pneumoniae ATCC BAA-2146” value amounted to 0.5 micrograms/mL. Besides, in the assay on P. aeruginosa (sole activity, Table 6C), the “MIC, P. aeruginosa ATCC 27853” value was 1 micrograms/mL and the “MIC, P. aeruginosa CCUG 59347” value was determined as 2 micrograms/mL. In the assay with A. baumannii (sole activity, Table 6C), the “MIC, A. baumannii ATCC BAA-747” value was found to be 4 micrograms/mL and the “MIC, A. baumannii NCTC 13424” value amounted to 2 micrograms/mL.

With “2-(2-aminoethyl)-4- methyl pentanoyl polymyxin B nonapeptide [Example D46]”, in the assay on E. coli (setting [1]), the “MIC, E. coli ATCC 25922” value is 1 micrograms/mL and the “MIC, E. coli NCTC 13441” value was determined as 1 micrograms/mL. Also, in the assay on K. pneumoniae (setting [1]), the “MIC, K. pneumoniae ATCC 4352” value stood at 0.5 micrograms/mL and the “MIC, K. pneumoniae ATCC BAA-2146” value was 1 micrograms/mL. In addition, in the assay on P. aeruginosa (setting [1]), the “MIC, P. aeruginosa ATCC 27853” value is given as 0.5 micrograms/mL and the “MIC, P. aeruginosa CCUG 59347” value is recorded as 1 micrograms/mL. Besides, in the assay with A. baumannii (setting [1]), the “MIC, A. baumannii ATCC BAA-747” value turned out to be 1 micrograms/mL and the “MIC, A. baumannii NCTC 13424” value is recorded as 2 micrograms/mL.

With “(S)-3-amino-2- (benzyloxy)propan- oyl Polymyxin B nonapeptide [Example D61]”, in the assay on E. coli (sole activity, Table 6C), the “MIC, E. coli ATCC 25922” value was 0.5 micrograms/mL and the “MIC, E. coli NCTC 13441” value amounted to 0.5 micrograms/mL. Besides, in the assay on K. pneumoniae (sole activity, Table 6C), the “MIC, K. pneumoniae ATCC 4352” value came out at 0.25 micrograms/mL and the “MIC, K. pneumoniae ATCC BAA-2146” value is reported as 0.25 micrograms/mL. In the assay on P. aeruginosa (sole activity, Table 6C), the “MIC, P. aeruginosa ATCC 27853” value is 0.5 micrograms/mL and the “MIC, P. aeruginosa CCUG 59347” value is recorded as 1 micrograms/mL. Besides, in the assay with A. baumannii (sole activity, Table 6C), the “MIC, A. baumannii ATCC BAA-747” value is 2 micrograms/mL and the “MIC, A. baumannii NCTC 13424” value worked out at 1 micrograms/mL.

Consider “1,2,3,4- tetrahydroisoquinoline- 4-carbonyl polymyxin B nonapeptide [Example D14]”, for which, in the assay with E. coli (setting [1]), the “MIC, E. coli ATCC 25922” value was >8 micrograms/mL and the “MIC, E. coli NCTC 13441” value is on record as >8 micrograms/mL. Besides, in the assay on K. pneumoniae (setting [1]), the “MIC, K. pneumoniae ATCC 4352” value is on record as >8 micrograms/mL and the “MIC, K. pneumoniae ATCC BAA-2146” value is listed as >8 micrograms/mL. Moreover, in the assay with P. aeruginosa (setting [1]), the “MIC, P. aeruginosa ATCC 27853” value was determined as 1 micrograms/mL and the “MIC, P. aeruginosa CCUG 59347” value is 4 micrograms/mL. In addition, in the assay on A. baumannii (setting [1]), the “MIC, A. baumannii ATCC BAA-747” value is given as >8 micrograms/mL and the “MIC, A. baumannii NCTC 13424” value was >8 micrograms/mL.

For “4-octylpiperidine-3- carbonyl polymyxin B nonapeptide [Example D34]”, in the assay with E. coli (setting [1]), the “MIC, E. coli ATCC 25922” value is reported as 1 micrograms/mL and the “MIC, E. coli NCTC 13441” value was found to be 1 micrograms/mL. Moreover, in the assay with K. pneumoniae (setting [1]), the “MIC, K. pneumoniae ATCC 4352” value was found to be 2 micrograms/mL and the “MIC, K. pneumoniae ATCC BAA-2146” value is given as 2 micrograms/mL. In the assay on P. aeruginosa (setting [1]), the “MIC, P. aeruginosa ATCC 27853” value is 1 micrograms/mL and the “MIC, P. aeruginosa CCUG 59347” value worked out at 2 micrograms/mL. For the same substance, in the assay on A. baumannii (setting [1]), the “MIC, A. baumannii ATCC BAA-747” value is recorded as 2 micrograms/mL and the “MIC, A. baumannii NCTC 13424” value came out at 2 micrograms/mL.

In the case of “2-aminomethyl-3- naphthalen-2-yl- propanoyl polymyxin B nonapeptide [Example D40]”, in the assay with E. coli (setting [1]), the “MIC, E. coli ATCC 25922” value is recorded as 2 micrograms/mL and the “MIC, E. coli NCTC 13441” value was found to be 2 micrograms/mL. Also, in the assay on K. pneumoniae (setting [1]), the “MIC, K. pneumoniae ATCC 4352” value was determined as 2 micrograms/mL and the “MIC, K. pneumoniae ATCC BAA-2146” value is listed as 4 micrograms/mL. For the same substance, in the assay on P. aeruginosa (setting [1]), the “MIC, P. aeruginosa ATCC 27853” value amounted to 0.5 micrograms/mL and the “MIC, P. aeruginosa CCUG 59347” value is 1 micrograms/mL. Further, in the assay on A. baumannii (setting [1]), the “MIC, A. baumannii ATCC BAA-747” value is listed as >8 micrograms/mL and the “MIC, A. baumannii NCTC 13424” value is reported as 8 micrograms/mL.

Turning to “(trans-6- octylpiperidine)-3- carbonyl polymyxin B nonapeptide [Example D19]”, in the assay with E. coli (setting [1]), the “MIC, E. coli ATCC 25922” value is 2 micrograms/mL and the “MIC, E. coli NCTC 13441” value is reported as 2 micrograms/mL. In the assay with K. pneumoniae (setting [1]), the “MIC, K. pneumoniae ATCC 4352” value turned out to be 2 micrograms/mL and the “MIC, K. pneumoniae ATCC BAA-2146” value amounted to 4 micrograms/mL. For the same substance, in the assay with P. aeruginosa (setting [1]), the “MIC, P. aeruginosa ATCC 27853” value is recorded as 0.5 micrograms/mL and the “MIC, P. aeruginosa CCUG 59347” value is 1 micrograms/mL. The “MIC, A. baumannii ATCC BAA-747” value in the assay on A. baumannii (setting [1]) came to 2 micrograms/mL.

For “5- (isobutylamino)pi- peridine-3- carbonyl Polymyxin B nonapeptide [Example D62]”, in the assay on E. coli (sole activity, Table 6C), the “MIC, E. coli ATCC 25922” value is 0.5 micrograms/mL and the “MIC, E. coli NCTC 13441” value is 1 micrograms/mL. In addition, in the assay with K. pneumoniae (sole activity, Table 6C), the “MIC, K. pneumoniae ATCC 4352” value worked out at 0.5 micrograms/mL and the “MIC, K. pneumoniae ATCC BAA-2146” value was determined as 1 micrograms/mL. Further, in the assay on P. aeruginosa (sole activity, Table 6C), the “MIC, P. aeruginosa ATCC 27853” value is given as 1 micrograms/mL and the “MIC, P. aeruginosa CCUG 59347” value was determined as 2 micrograms/mL. For the same substance, in the assay on A. baumannii (sole activity, Table 6C), the “MIC, A. baumannii ATCC BAA-747” value came to 4 micrograms/mL and the “MIC, A. baumannii NCTC 13424” value amounted to 4 micrograms/mL.

As for “(S)-3-amino-2- (benzylamino)pro- panoyl Polymyxin B nonapeptide [Example D59]”, in the assay with E. coli (sole activity, Table 6C), the “MIC, E. coli ATCC 25922” value is on record as 0.5 micrograms/mL and the “MIC, E. coli NCTC 13441” value was found to be 0.5 micrograms/mL. In addition, in the assay on K. pneumoniae (sole activity, Table 6C), the “MIC, K. pneumoniae ATCC 4352” value was determined as 0.5 micrograms/mL and the “MIC, K. pneumoniae ATCC BAA-2146” value amounted to 0.5 micrograms/mL. For the same substance, in the assay on P. aeruginosa (sole activity, Table 6C), the “MIC, P. aeruginosa ATCC 27853” value was 0.5 micrograms/mL and the “MIC, P. aeruginosa CCUG 59347” value is listed as 1 micrograms/mL. Also, in the assay with A. baumannii (sole activity, Table 6C), the “MIC, A. baumannii ATCC BAA-747” value came to 2 micrograms/mL and the “MIC, A. baumannii NCTC 13424” value is 1 micrograms/mL.

Regarding “(cis-5-(2-methylpropyl) piperidine)-3-carbonyl polymyxin B nonapeptide [Example D47]”, in the assay on E. coli (setting [1]), the “MIC, E. coli ATCC 25922” value stood at 4 micrograms/mL and the “MIC, E. coli NCTC 13441” value amounted to 8 micrograms/mL. For the same substance, in the assay with K. pneumoniae (setting [1]), the “MIC, K. pneumoniae ATCC 4352” value is given as 4 micrograms/mL and the “MIC, K. pneumoniae ATCC BAA-2146” value came to 8 micrograms/mL. In addition, in the assay with P. aeruginosa (setting [1]), the “MIC, P. aeruginosa ATCC 27853” value was 2 micrograms/mL and the “MIC, P. aeruginosa CCUG 59347” value is >8 micrograms/mL. In the assay with A. baumannii (setting [1]), the “MIC, A. baumannii ATCC BAA-747” value is >8 micrograms/mL and the “MIC, A. baumannii NCTC 13424” value is >8 micrograms/mL.

With “2-benzyl-3- (methylamino)pro- panoyl polymyxin B nonapeptide [Example D57]”, in the assay on E. coli (sole activity, Table 6C), the “MIC, E. coli ATCC 25922” value is listed as 0.25 micrograms/mL and the “MIC, E. coli NCTC 13441” value was 0.5 micrograms/mL. For the same substance, in the assay on K. pneumoniae (sole activity, Table 6C), the “MIC, K. pneumoniae ATCC 4352” value is 0.25 micrograms/mL and the “MIC, K. pneumoniae ATCC BAA-2146” value is on record as 0.25 micrograms/mL. In the assay on P. aeruginosa (sole activity, Table 6C), the “MIC, P. aeruginosa ATCC 27853” value was 0.5 micrograms/mL and the “MIC, P. aeruginosa CCUG 59347” value came to 1 micrograms/mL. Besides, in the assay on A. baumannii (sole activity, Table 6C), the “MIC, A. baumannii ATCC BAA-747” value is 4 micrograms/mL and the “MIC, A. baumannii NCTC 13424” value is listed as 2 micrograms/mL.

In the case of “4- (isobutylamino)pi- peridine-3- carbonyl L-Thr-L- Dap-polymyxin B heptapeptide [Example D74]”, in the assay on E. coli (sole activity, Table 6C), the “MIC, E. coli ATCC 25922” value is listed as 0.25 micrograms/mL and the “MIC, E. coli NCTC 13441” value is given as 0.25 micrograms/mL. Besides, in the assay on K. pneumoniae (sole activity, Table 6C), the “MIC, K. pneumoniae ATCC 4352” value stood at 0.125 micrograms/mL and the “MIC, K. pneumoniae ATCC BAA-2146” value is reported as 0.5 micrograms/mL. Also, in the assay on P. aeruginosa (sole activity, Table 6C), the “MIC, P. aeruginosa ATCC 27853” value came out at 0.25 micrograms/mL and the “MIC, P. aeruginosa CCUG 59347” value was 0.5 micrograms/mL. Further, in the assay on A. baumannii (sole activity, Table 6C), the “MIC, A. baumannii ATCC BAA-747” value is 2 micrograms/mL and the “MIC, A. baumannii NCTC 13424” value was 2 micrograms/mL.

The record behind these values is patent US20210221848A1, “POLYMYXIN DERIVATIVES AND THEIR USE IN COMBINATION THERAPY TOGETHER WITH DIFFERENT ANTIBIOTICS” (priority 2014, published 2021).
